In one assay the test system is Mino cells. Briefly: Effect of the compound on the proliferation of Mino cells (MTS). The settings on record: Homo sapiens, 72 h, 3 days, read-out: Inhibitory activity (IC50). The assay is classed as cell-based. The method, then:
Mino cells were cultured with 1640 plus […] and collected. The cell concentration was diluted according to the action time of 3 days, and 90 ul cell suspension was added to each well of the 96-well cell plate to make the cell count to be 8000. 10 ul of DMSO with a final concentration of 0.2% was added to the control cell wells. The compound was diluted 5-fold with the 10 mM stock solution, and 10 ul was also added to the compound cell wells (the final concentration of DMSO was 0.2%). The cells were placed in a 37° C., […] incubator and incubated for 3 days. After preparing the reaction solution according to the MTS kit (Promega, G5430), 20 μL was added to each well, incubated in a 37° C., 5% CO2 incubator for 3-4 h. Read the 490 nm absorbance value with a microtiter plate, and used the 690 nm absorbance value as the background value and OD490-OD690 as the final initial data. The formula for calculating the inhibition rate of the compound was: inhibition rate=(OD DMSO-ODcompound)/(ODDMSO-Oblank)×100%. The compound's proliferation inhibition IC50 was fitted by Graph Pad Prism 5.0. The experiment was repeated three times, and three parallel experiments were used to calculate the average and standard deviation each time.

For the next assay, the system named is MM.1S cells. The assay is described as follows: Effect of the compound on the proliferation of MM.1S cells (MTS). The assay is classed as cell-based. The note with it: Homo sapiens, MM1.S, 168 h, 7 days, read-out: Cell inhibitory activity (IC50). The method, then:
MM.1S cells were cultured with 1640 plus 10% fetal bovine serum and collected. The cell concentration was diluted according to the action time of 7 days, and 180 ul cell suspension was added to each well of the 96-well cell plate to make the cell count to be 20,000. 20 ul of DMSO with a final concentration of 0.2% was added to the control cell wells. The compound was diluted 5-fold with the 10 mM stock solution, and 20 ul was also added to the compound cell wells (the final concentration of DMSO is 0.2%). The cells were placed in a 37° C., 5% CO2 incubator and incubated for 7 days. After preparing the reaction solution according to the MTS kit (Promega, G5430), 20 μL was added to each well, incubated in a 37° C., 5% CO2 incubator for 3-4 h. Read the 490 nm absorbance value with a microtiter plate, and used the 690 nm absorbance value as the background value and OD490-OD690 as the final initial data. The formula for calculating the inhibition rate of the compound is: inhibition rate=(OD DMSO-ODcompound)/(ODDMSO-Oblank)×100%. The compound's proliferation inhibition IC50 was fitted by Graph Pad Prism 5.0. The experiment was repeated three times, and three parallel experiments were used to calculate the average and standard deviation each time.

`O=C1CCC(N2Cc3c(OCc4cn(-c5ccc(N6CCOCC6)cc5)nn4)cccc3C2=O)C(=O)N1` (stereo not drawn) [Compound 19, 3-(4-((1-(4-morpholinophenyl)-1H-1,2,3-triazol-4-)methoxy)-1-oxoisoindolin-2-) piperidine-2,6-dione]: the results for the 50% inhibitory concentration (IC50) in the assay with Mino cells and with MM.1S cells were 150 to 20000 nM and less than 150 nM, respectively.

Turning to `O=C1CCC(N2Cc3c(OCc4cn(-c5ccc6ncsc6c5)nn4)cccc3C2=O)C(=O)N1` (stereo not drawn) [Compound 23, 3-(4-((1-(benzo [d]thiazol-6)-1H-1,2,3-triazol-4-(methoxy)-1-oxoisoindolin-2-)piperidine-2,6-dione], the IC50 in the assay on Mino cells and with MM.1S cells was less than 150 nM each time.

For the molecule `O=C1CCC(N2Cc3c(OCc4cn(-c5ccc(O[C@@H]6CCOC6)cc5)nn4)cccc3C2=O)C(=O)N1` (stereo partly drawn) [Compound 24, 3-(1-oxo-4-((1-(4-(((R)-tetrahydrofuran-3-)oxy)phenyl)-1H-1,2,3-triazol-4-)methoxy)isoindolin-2-)piperidine-2,6-dione], the IC50 in the assay on Mino cells and in the assay on MM.1S cells was less than 150 nM in each case.

For `O=C1CCC(N2Cc3c(OCc4cn(-c5ccc(O[C@H]6CCOC6)cc5)nn4)cccc3C2=O)C(=O)N1` (stereo partly drawn) [Compound 25, 3-(1-oxo-4-((1-(4-(((S)-tetrahydrofuran-3-)oxy)phenyl)-1H-1,2,3-triazol-4-)methoxy)isoindolin-2-)piperidine-2,6-dione], the concentration for half-maximal inhibition (IC50) in the assay on Mino cells and in the assay on MM.1S cells was less than 150 nM throughout.

With `O=C1CCC(N2Cc3c(OCc4cn(-c5ccc(OCC6CCOCC6)cc5)nn4)cccc3C2=O)C(=O)N1` (stereo not drawn) [Compound 29, 3-(1-oxo-4-((1-(4-((2H-tetrahydropyran-4-)methoxy)phenyl)-1H-1,2,3-triazol-4-)methoxy)isoindolin-2-) piperidine-2,6-dione], the values for the IC50 with Mino cells and with MM.1S cells were 150 to 20000 nM and less than 150 nM, respectively.

`O=C1CCC(N2Cc3c(OCc4ncc(-c5ccc(OC(F)(F)F)cc5)s4)cccc3C2=O)C(=O)N1` (stereo not drawn) [Compound 39, 3-(1-oxo-4-((5-(4-trifluoromethoxyphenyl)thiazol-2-)methoxy)isoindolin-2-) piperidine-2,6-dione]: the IC50 (in general, the concentration needed to halve the response being measured) in the assay with Mino cells was 150 to 20000 nM; with MM.1S cells, less than 150 nM.

For `O=C1CCC(N2Cc3c(OCc4ncc(-c5ccc(OC(F)(F)F)cc5)o4)cccc3C2=O)C(=O)N1` (stereo not drawn) [Compound 40, 3-(1-oxo-4-((5-(4-trifluoromethoxyphenyl)oxazol-2-)methoxy)isoindolin-2-) piperidine-2,6-dione], the IC50 in the assay on Mino cells and in the assay on MM.1S cells was less than 150 nM each time.

For the molecule `O=C1CCC(N2Cc3c(OCc4nnc(-c5ccc(OC(F)(F)F)cc5)s4)cccc3C2=O)C(=O)N1` (stereo not drawn) [Compound 41, 3-(1-oxo-4-((5-(4-trifluoromethoxyphenyl)-1,3,4-thiadiazol-2-)methoxy)isoindolin-2-) piperidine-2,6-dione], the values for the IC50 in the assay with Mino cells and in the assay on MM.1S cells were 150 to 20000 nM and less than 150 nM, respectively.

Turning to `O=C1CCC(N2Cc3c(OCc4ccc(-c5ccc(OC(F)(F)F)cc5)o4)cccc3C2=O)C(=O)N1` (stereo not drawn) [Compound 42, 3-(1-oxo-4-((5-(4-trifluoromethoxyphenyl)furan-2-)methoxy)isoindolin-2-) piperidine-2,6-dione], the IC50 in the assay with Mino cells and in the assay with MM.1S cells was less than 150 nM throughout.

Turning to `O=C1CCC(N2Cc3c(OCc4nnc(-c5ccc(OC(F)(F)F)cc5)o4)cccc3C2=O)C(=O)N1` (stereo not drawn) [Compound 43, 3-(1-oxo-4-((5-(4-trifluoromethoxyphenyl)-1,3,4-oxadiazol-2-)methoxy)isoindolin-2-) piperidine-2,6-dione], the IC50 in the assay with Mino cells and with MM.1S cells was less than 150 nM each time.

Turning to `O=C1CCC(N2Cc3c(OCc4cnc(-c5ccc(OC(F)(F)F)cc5)s4)cccc3C2=O)C(=O)N1` (stereo not drawn) [Compound 44, 3-(1-oxo-4-((2-(4-trifluoromethoxyphenyl)thiazol-5-)methoxy)isoindolin-2-) piperidine-2,6-dione], the IC50 with Mino cells and with MM.1S cells was less than 150 nM each time.

On to `O=C1CCC(N2Cc3c(NCc4cnc(-c5cccc(OC(F)(F)F)c5)o4)cccc3C2=O)C(=O)N1` (stereo not drawn) [Compound 90], for which the IC50 with Mino cells and in the assay with MM.1S cells was less than 150 nM each time.
